Results as given in patent US12116358B2, “Substituted indoles and methods of use thereof” (EPIZYME, INC., priority 2018, dated 2024).

target: T1, SETD2(1434-1711) (Homo sapiens, UniProt Q9BYW2); assay: SETD2 (1434-1711) assay; assay type: biochemical; settings: read-out: SETD2 (1434-1711)
T1 construct: SETD2 (1434-1711) Assay; catalogue N/A
T1 sequence (Q9BYW2 1434-1711): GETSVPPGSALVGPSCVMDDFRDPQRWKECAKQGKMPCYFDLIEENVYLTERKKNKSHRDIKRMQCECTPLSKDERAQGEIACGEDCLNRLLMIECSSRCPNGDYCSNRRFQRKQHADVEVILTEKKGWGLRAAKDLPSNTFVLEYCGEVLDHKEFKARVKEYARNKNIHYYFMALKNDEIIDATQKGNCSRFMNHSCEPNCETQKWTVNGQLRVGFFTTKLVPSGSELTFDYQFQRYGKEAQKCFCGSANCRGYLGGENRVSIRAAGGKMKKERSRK

Going from Cc1cccnc1C(CCN(C)C)NC(=O)c1cc2cccc(C)c2[nH]1 (stereo not shown) [compound 728] to Cc1cccnc1C(CN(C)C)NC(=O)c1cc2cccc(C)c2[nH]1 (stereo not shown) [compound 627], the IC50 falls from 127 µM to 13.2 µM (9.6-fold).

Going from CC(=O)N1CCC(NC(=O)c2cc3cccc(C)c3[nH]2)CC1 [compound 670] to Cc1cccc2cc(C(=O)NC3CCN(C(=O)CCCN)CC3)[nH]c12 [compound 639], the IC50 falls from 35.4 µM to 18.5 µM (1.9-fold).

Compared with COC(=O)CC(NC(=O)c1cc2cccc(C)c2[nH]1)c1ccsc1 (stereo not shown) [compound 649], COC(=O)C[C@H](NC(=O)c1cc2cccc(C)c2[nH]1)c1cccnc1 [compound 676] is 1.7-fold higher in IC50: 22.3 µM for the first, 38.1 µM for the second. The first is the more potent here.

COC(=O)CC(NC(=O)c1cc2cccc(C)c2[nH]1)c1ccc(C(C)C)cc1 (stereo not shown) [compound 773] and COC(=O)CC(NC(=O)c1cc2cccc(C)c2[nH]1)c1ccc(F)cc1 (stereo not shown) [compound 776] cannot be ordered by IC50: over 200 µM for the first, over 200 µM for the second.

Compared with Cc1cccc2cc(C(=O)NC(c3ccccn3)C3CC3)[nH]c12 (stereo not shown) [compound 660], Cc1ccccc1C(NC(=O)c1cc2cccc(C)c2[nH]1)C1CC1 (stereo not shown) [compound 801] is higher in IC50: 27.9 µM for the first, over 200 µM for the second. The first is the more potent here.

First: Cc1ccc(F)c2cc(C(=O)N[C@@H]3CCC[C@@H](N4CCn5ccnc5C4)C3)[nH]c12 [compound 853]
Second: CCN1CCN([C@@H]2CCC[C@@H](NC(=O)c3cc4c(F)ccc(C)c4[nH]3)C2)CC1=O [compound 836]
The IC50 of the first is 2.4-fold higher: 9.7 µM for the first, 4 µM for the second. The second is the more potent here.

Going from Cc1cccc2cc(C(=O)N[C@H]3CC[C@H](NS(=O)(=O)CCN)CC3)[nH]c12 [compound 661] to CC(=O)N[C@H]1CC[C@H](NC(=O)c2cc3cccc(C)c3[nH]2)CC1 [compound 698], the IC50 rises from 28.7 µM to 63 µM (2.2-fold). The first is the more potent here.

First: CCC(NC(=O)c1cc2cccc(C)c2[nH]1)c1nc(C)no1 (stereo not shown) [compound 668]
Second: Cc1nc(CCNC(=O)c2cc3cccc(C)c3[nH]2)no1 [compound 782]
The IC50 of the first is lower: 34.5 µM for the first, over 200 µM for the second. The first is the more potent here.

Going from COC(=O)CC(NC(=O)c1cc2cccc(C)c2[nH]1)c1cccc(Br)c1 (stereo not shown) [compound 669] to COC(=O)C[C@@H](NC(=O)c1cc2cccc(C)c2[nH]1)c1cccc(Cl)c1 [compound 634], the IC50 falls from 35.2 µM to 16.3 µM (2.2-fold).

First: Cc1cccc2cc(C(=O)NCC(CN(C)C)c3ccccc3)[nH]c12 (stereo not shown) [compound 815]
Second: Cc1cccc2cc(C(=O)N[C@H](CO)c3ccccc3)[nH]c12 [compound 703]
The IC50 of the first is higher: over 200 µM for the first, 70.7 µM for the second.

Going from Cc1cccc2cc(C(=O)NCc3ccccc3N(C)C)[nH]c12 [compound 638] to Cc1cccc2cc(C(=O)NCc3ccccc3OCC3CC3)[nH]c12 [compound 767], the IC50 rises from 18.1 µM to over 200 µM.

First: Cc1cccc2cc(C(=O)NC(c3ccccn3)c3ccccn3)[nH]c12 [compound 637]
Second: Cc1cccc2cc(C(=O)N[C@H](c3ccccc3)C(F)(F)F)[nH]c12 [compound 726]
The IC50 of the first is 7.1-fold lower: 17.5 µM for the first, 124 µM for the second. The first is the more potent here.

Cc1cccc2cc(C(=O)NCc3cccc(N4CCCCC4)c3)[nH]c12 [compound 750] and Cc1cccc2cc(C(=O)NCc3ccccc3N3CCCCC3)[nH]c12 [compound 716] cannot be ordered by IC50: over 200 µM for the first, over 100 µM for the second.

Going from Cc1cccc2cc(C(=O)N[C@H]3C[C@H]4CC[C@@H]3CN4C(=O)CCN)[nH]c12 [compound 631] to Cc1cccc2cc(C(=O)NC3CCCN(C(=O)CCCN)C3)[nH]c12 (stereo not shown) [compound 664], the IC50 rises from 15.3 µM to 31.7 µM (2.1-fold).

First: Cc1oncc1CNC(=O)c1cc2cccc(C)c2[nH]1 [compound 702]
Second: Cc1cc(CNC(=O)c2cc3cccc(C)c3[nH]2)no1 [compound 719]
The IC50 of the first is 1.5-fold lower: 69.6 µM for the first, 107 µM for the second. The first is the more potent here.

Going from Cc1cccc2cc(C(=O)N[C@H]3CC[C@@H](CO)CC3)[nH]c12 [compound 662] to Cc1cccc2cc(C(=O)N[C@H]3C[C@@H](CO)C3)[nH]c12 [compound 759], the IC50 rises from 29.7 µM to over 200 µM. The first is the more potent here.

Compared with Cc1ccc(F)c2cc(C(=O)N[C@@H]3CCC[C@@H](N4CCN(CC(F)(F)F)CC4)C3)[nH]c12 [compound 827], CCOC(=O)N1CCN([C@@H]2CCC[C@@H](NC(=O)c3cc4c(F)ccc(C)c4[nH]3)C2)CC1 [compound 825] is 6.3-fold lower in IC50: 7.6 µM for the first, 1.2 µM for the second. The second is the more potent here.

Cc1cccnc1C(NC(=O)c1cc2cccc(C(F)(F)F)c2[nH]1)C1CC1 (stereo not shown) [compound 717] and Cc1cccnc1C(NC(=O)c1cc2cccc(C(C)C)c2[nH]1)C1CC1 (stereo not shown) [compound 802] cannot be ordered by IC50: over 100 µM for the first, over 200 µM for the second.

Cc1cccc2cc(C(=O)Nc3cccnc3)[nH]c12 [compound 795] and CNC(=O)CC(NC(=O)c1cc2cccc(C)c2[nH]1)c1cccnc1 (stereo not shown) [compound 809] cannot be ordered by IC50: over 200 µM for the first, over 200 µM for the second.

Going from COC(=O)CC(NC(=O)c1cc2cccc(C)c2[nH]1)c1cccc(OC)c1 (stereo not shown) [compound 659] to COC(=O)CC(NC(=O)c1cc2cccc(C)c2[nH]1)c1ccc(OC)cc1 (stereo not shown) [compound 777], the IC50 rises from 27.4 µM to over 200 µM.

Going from Cc1cccc2cc(C(=O)NC(C)CNC(=O)OC(C)(C)C)[nH]c12 (stereo not shown) [compound 766] to COC(=O)C[C@@H](NC(=O)c1cc2cccc(C)c2[nH]1)C(=O)OC [compound 694], the IC50 falls from over 200 µM to 62.1 µM. The second is the more potent here.

Compared with Cc1ccc(C)c2[nH]c(C(=O)N[C@H]3CC[C@H](NC(=O)CCN)CC3)cc12 [compound 644], CCc1c(C(=O)N[C@H]2CC[C@H](NC(=O)CCN)CC2)[nH]c2c(C)cccc12 [compound 711] is 4.4-fold higher in IC50: 19.5 µM for the first, 85.9 µM for the second.

Cc1cccc2cc(C(=O)N3CCC(C(N)=O)CC3)[nH]c12 [compound 771] and Cc1cccc2cc(C(=O)N3CCCC3C(N)=O)[nH]c12 (stereo not shown) [compound 786] cannot be ordered by IC50: over 200 µM for the first, over 200 µM for the second.

Going from Cc1cccc2cc(C(=O)NC3CCC(c4ccccc4)NC(=O)C3)[nH]c12 (stereo not shown) [compound 816] to Cc1cccc2cc(C(=O)Nc3ccccc3C3CCC(=O)N3)[nH]c12 (stereo not shown) [compound 679], the IC50 falls from over 200 µM to 43.1 µM. The second is the more potent here.

Cc1cccc2cc(C(=O)NC3CCC(=O)Nc4ccccc43)[nH]c12 (stereo not shown) [compound 704] and Cc1cccc2cc(C(=O)NC3Cc4ccccc4NC3=O)[nH]c12 (stereo not shown) [compound 699] are within 1.5-fold of each other in IC50: 70.9 µM for the first, 66.7 µM for the second.

Compared with Cc1ccc(C)c2[nH]c(C(=O)N[C@H]3CC[C@H](N)CC3)cc12 [compound 730], NC1CCC(NC(=O)c2cc3cccc(Br)c3[nH]2)CC1 (stereo not shown) [compound 706] is lower in IC50: over 130 µM for the first, 71.9 µM for the second.

Cc1cccc2cc(C(=O)NCCN3CCOCC3)[nH]c12 [compound 746] and Cc1cccc2cc(C(=O)NCc3ccc(CN4CCOCC4)cc3)[nH]c12 [compound 755] cannot be ordered by IC50: over 200 µM for the first, over 200 µM for the second.

Compared with COC(=O)CC(NC(=O)c1cc2cccc(C)c2[nH]1)c1ccccc1C (stereo not shown) [compound 677], COC(=O)CC(NC(=O)c1cc2cccc(C)c2[nH]1)c1ccccc1Br (stereo not shown) [compound 774] is higher in IC50: 39.5 µM for the first, over 200 µM for the second.

Going from Cc1cccc2cc(C(=O)NCC(O)C3CC3)[nH]c12 (stereo not shown) [compound 731] to Cc1cccc2cc(C(=O)NCC(O)C(F)(F)F)[nH]c12 (stereo not shown) [compound 678], the IC50 falls from 137 µM to 39.7 µM (3.5-fold). The second is the more potent here.

Compared with Cc1ccc(F)c2cc(C(=O)NC3C(=O)N(C)CCc4ccccc43)[nH]c12 (stereo not shown) [compound 390], Cc1cccc2cc(C(=O)NC3CCN(Cc4ccccc4)CC3)[nH]c12 [compound 752] is higher in IC50: 0.5 µM for the first, over 200 µM for the second. The first is the more potent here.

Compared with Cc1cccc2cc(C(=O)NC3CCCN(c4ncccn4)C3)[nH]c12 (stereo not shown) [compound 626], Cc1cccc2cc(C(=O)NC3CCCN(S(=O)(=O)CCCN)C3)[nH]c12 (stereo not shown) [compound 646] is 1.6-fold higher in IC50: 12.5 µM for the first, 20.3 µM for the second. The first is the more potent here.

Cc1cccc2cc(C(=O)N3CCCC(N(C)C)C3)[nH]c12 (stereo not shown) [compound 799] and CNC1CCCN(C(=O)c2cc3cccc(C)c3[nH]2)C1 (stereo not shown) [compound 800] cannot be ordered by IC50: over 200 µM for the first, over 200 µM for the second.

Cc1cccc2cc(C(=O)Nc3ncc4ccccc4n3)[nH]c12 [compound 804] and Cc1cccc2cc(C(=O)NCc3nc4ccccc4o3)[nH]c12 [compound 779] cannot be ordered by IC50: over 200 µM for the first, over 200 µM for the second.

Cc1cccc2cc(C(=O)NCCc3ccc(Cl)cc3N3CCOCC3)[nH]c12 [compound 653] and Cc1cccc2cc(C(=O)NCc3cccc(CN4CCOCC4)c3)[nH]c12 [compound 709] cannot be ordered by IC50: over 25 µM for the first, 78.4 µM for the second.

Compared with Cc1cnc(CNC(=O)c2cc3cccc(C)c3[nH]2)cn1 [compound 723], Cc1cccc2cc(C(=O)NCc3ncnn3C)[nH]c12 [compound 768] is higher in IC50: 116 µM for the first, over 200 µM for the second.

First: Cc1cccc2cc(C(=O)N3CCn4cncc4C3)[nH]c12 [compound 810]
Second: Cc1cccc2cc(C(=O)Nc3cccc(CN4CCOCC4)n3)[nH]c12 [compound 633]
The IC50 of the first is higher: over 200 µM for the first, 16.2 µM for the second. The second is the more potent here.

Compared with COC(=O)CC(NC(=O)c1cc2cccc(C)c2[nH]1)c1ccc(Br)cc1 (stereo not shown) [compound 778], COC(=O)C[C@H](NC(=O)c1cc2cccc(C)c2[nH]1)c1ccccc1 [compound 690] is lower in IC50: over 200 µM for the first, 55.8 µM for the second. The second is the more potent here.

Cc1cccc2cc(C(=O)NC(c3cccc(CC(N)=O)n3)C3CC3)[nH]c12 (stereo not shown) [compound 667] and CNC(=O)CC(NC(=O)c1cc2cccc(C)c2[nH]1)c1ncccc1C (stereo not shown) [compound 682] are within 1.5-fold of each other in IC50: 34.5 µM for the first, 45.4 µM for the second.

First: Cc1ccc(F)c2cc(C(=O)N[C@@H]3CCC[C@@H](N4CCN(C(=O)N5CCOCC5)CC4)C3)[nH]c12 [compound 829]
Second: Cc1cccc2cc(C(=O)N[C@H]3CC[C@](C)(NC(=O)CCN)CC3)[nH]c12 [compound 629]
The IC50 of the first is 9.7-fold lower: 1.5 µM for the first, 14.5 µM for the second. The first is the more potent here.

Going from Cc1cccc2cc(C(=O)NCC(O)c3c(F)cccc3F)[nH]c12 (stereo not shown) [compound 720] to COc1cc(OC)cc(C(O)CNC(=O)c2cc3cccc(C)c3[nH]2)c1 (stereo not shown) [compound 681], the IC50 falls from 109 µM to 45 µM (2.4-fold).

Going from Cc1cccc2cc(C(=O)NCc3ccccc3N3CCNCC3)[nH]c12 [compound 636] to COC(=O)CC(NC(=O)c1cc2cccc(C)c2[nH]1)c1ccccc1 (stereo not shown) [compound 775], the IC50 rises from 16.8 µM to over 200 µM.

First: Cc1cccc2cc(C(=O)NC(C)c3cccc(C(F)(F)F)c3)[nH]c12 (stereo not shown) [compound 790]
Second: Cc1csc(C(C)NC(=O)c2cc3cccc(C)c3[nH]2)n1 (stereo not shown) [compound 688]
The IC50 of the first is higher: over 200 µM for the first, 52.1 µM for the second.

For NCCC(=O)N[C@H]1CC[C@H](NC(=O)c2cc3cccc(Cl)c3[nH]2)CC1 [compound 697], the IC50 was 62.8 µM.
